# Laboratory results taken from the kinase profiling compilation of Christmann-Franck et al. (2016).
# How the values were obtained:
# Experiment in all cases: radiometric filter-binding kinase assay, Kinase HotSpot
# Conditions in all cases: compound 0.5 µM; ATP 10 µM
# CSNK2A2 (human) = CSNK2A2 (human) (UniProt P19784)
# EPHA4 (human) = EPHA4 (human) (UniProt P54764)
# MAP3K9 (human) = MAP3K9 (human) (UniProt P80192)
# RAF1 (human) = RAF1 (human) (UniProt P04049)
# MAPK3 (human) = MAPK3 (human) (UniProt P27361)
# CAMK2D (human) = CAMK2D (human) (UniProt Q13557)
# RPS6KB1 (human) = RPS6KB1 (human) (UniProt P23443)
# LTK (human) = LTK (human) (UniProt P29376)
# CDK5 CDK5R1 p35 (human) = CDK5 CDK5R1 p35 (human) (UniProt Q00535+Q15078)
# STK4 (human) = STK4 (human) (UniProt Q13043)
# MAPK1 (human) = MAPK1 (human) (UniProt P28482)
# Chain of MAPK1 (human) (P28482 whole entry, looked up): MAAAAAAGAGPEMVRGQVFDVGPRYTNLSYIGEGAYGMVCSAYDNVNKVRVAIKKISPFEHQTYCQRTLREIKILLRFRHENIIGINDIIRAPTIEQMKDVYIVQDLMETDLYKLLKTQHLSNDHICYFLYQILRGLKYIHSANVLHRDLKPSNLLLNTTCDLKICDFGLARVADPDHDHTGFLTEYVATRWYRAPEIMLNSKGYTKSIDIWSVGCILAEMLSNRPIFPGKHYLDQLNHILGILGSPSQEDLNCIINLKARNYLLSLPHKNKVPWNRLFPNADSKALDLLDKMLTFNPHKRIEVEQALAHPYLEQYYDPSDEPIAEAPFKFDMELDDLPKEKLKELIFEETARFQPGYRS
# STK17A (human) = STK17A (human) (UniProt Q9UEE5)
# TEK (human) = TEK (human) (UniProt Q02763)
# Chain of TEK (human) (Q02763 whole entry, looked up): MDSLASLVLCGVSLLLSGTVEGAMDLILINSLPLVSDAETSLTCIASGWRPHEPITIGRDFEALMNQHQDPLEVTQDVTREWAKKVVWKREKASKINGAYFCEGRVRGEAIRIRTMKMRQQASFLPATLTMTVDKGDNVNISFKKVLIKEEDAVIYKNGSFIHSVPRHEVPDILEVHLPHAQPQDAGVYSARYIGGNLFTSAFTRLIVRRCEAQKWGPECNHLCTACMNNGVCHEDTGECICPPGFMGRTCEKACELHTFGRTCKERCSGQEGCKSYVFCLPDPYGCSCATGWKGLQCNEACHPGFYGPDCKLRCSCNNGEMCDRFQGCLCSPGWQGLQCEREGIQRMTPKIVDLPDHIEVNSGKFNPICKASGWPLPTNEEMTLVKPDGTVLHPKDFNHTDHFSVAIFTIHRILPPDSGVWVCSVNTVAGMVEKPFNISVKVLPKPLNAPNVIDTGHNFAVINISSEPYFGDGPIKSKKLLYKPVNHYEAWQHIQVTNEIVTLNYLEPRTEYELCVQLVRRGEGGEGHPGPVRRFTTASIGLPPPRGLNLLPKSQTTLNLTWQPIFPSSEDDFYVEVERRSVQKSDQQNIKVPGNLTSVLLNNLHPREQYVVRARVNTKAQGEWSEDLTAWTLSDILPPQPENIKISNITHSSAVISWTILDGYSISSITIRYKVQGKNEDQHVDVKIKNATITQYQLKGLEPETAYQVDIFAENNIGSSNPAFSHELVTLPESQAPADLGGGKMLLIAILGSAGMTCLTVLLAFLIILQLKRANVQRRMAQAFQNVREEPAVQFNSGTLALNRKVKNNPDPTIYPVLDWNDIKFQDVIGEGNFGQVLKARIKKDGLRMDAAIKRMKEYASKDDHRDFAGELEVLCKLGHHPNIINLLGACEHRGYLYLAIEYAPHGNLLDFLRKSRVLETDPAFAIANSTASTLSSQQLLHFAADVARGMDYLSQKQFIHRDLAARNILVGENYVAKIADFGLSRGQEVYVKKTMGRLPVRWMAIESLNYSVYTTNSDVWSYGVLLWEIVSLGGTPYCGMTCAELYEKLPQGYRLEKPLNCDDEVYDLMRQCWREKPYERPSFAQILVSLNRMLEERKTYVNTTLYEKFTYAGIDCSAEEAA
# BRSK2 (human) = BRSK2 (human) (UniProt Q8IWQ3)
# MAP4K4 (human) = MAP4K4 (human) (UniProt O95819)
# TXK (human) = TXK (human) (UniProt P42681)
# PTK2 (human) = PTK2 (human) (UniProt Q05397)
# FES (human) = FES (human) (UniProt P07332)
# Chain of FES (human) (P07332 whole entry, looked up): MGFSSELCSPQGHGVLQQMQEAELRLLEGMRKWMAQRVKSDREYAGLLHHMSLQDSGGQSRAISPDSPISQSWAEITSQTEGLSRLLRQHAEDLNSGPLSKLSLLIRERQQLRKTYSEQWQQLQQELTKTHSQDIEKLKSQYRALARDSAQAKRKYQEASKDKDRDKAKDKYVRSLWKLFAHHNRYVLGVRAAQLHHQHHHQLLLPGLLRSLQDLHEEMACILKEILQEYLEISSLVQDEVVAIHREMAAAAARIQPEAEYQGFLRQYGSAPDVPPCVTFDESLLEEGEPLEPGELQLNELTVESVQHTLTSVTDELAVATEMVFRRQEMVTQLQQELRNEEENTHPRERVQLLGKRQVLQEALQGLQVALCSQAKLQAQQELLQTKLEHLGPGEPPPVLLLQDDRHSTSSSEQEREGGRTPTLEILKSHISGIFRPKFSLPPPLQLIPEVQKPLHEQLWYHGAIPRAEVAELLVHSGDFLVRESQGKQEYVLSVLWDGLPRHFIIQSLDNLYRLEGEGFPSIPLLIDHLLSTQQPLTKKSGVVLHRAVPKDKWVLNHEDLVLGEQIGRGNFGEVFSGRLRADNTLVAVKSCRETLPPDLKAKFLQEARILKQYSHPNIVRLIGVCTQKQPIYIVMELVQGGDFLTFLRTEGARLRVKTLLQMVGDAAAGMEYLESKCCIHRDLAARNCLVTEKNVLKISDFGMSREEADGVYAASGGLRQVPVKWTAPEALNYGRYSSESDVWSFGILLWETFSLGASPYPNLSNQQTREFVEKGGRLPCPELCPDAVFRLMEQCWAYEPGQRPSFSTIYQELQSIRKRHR
# AURKC (human) = AURKC (human) (UniProt Q9UQB9)
# MAP3K7 TAB1 (human) = MAP3K7 TAB1 (human) (UniProt O43318+Q15750)
# Chain of MAP3K7 TAB1 (human) (O43318 whole entry, looked up): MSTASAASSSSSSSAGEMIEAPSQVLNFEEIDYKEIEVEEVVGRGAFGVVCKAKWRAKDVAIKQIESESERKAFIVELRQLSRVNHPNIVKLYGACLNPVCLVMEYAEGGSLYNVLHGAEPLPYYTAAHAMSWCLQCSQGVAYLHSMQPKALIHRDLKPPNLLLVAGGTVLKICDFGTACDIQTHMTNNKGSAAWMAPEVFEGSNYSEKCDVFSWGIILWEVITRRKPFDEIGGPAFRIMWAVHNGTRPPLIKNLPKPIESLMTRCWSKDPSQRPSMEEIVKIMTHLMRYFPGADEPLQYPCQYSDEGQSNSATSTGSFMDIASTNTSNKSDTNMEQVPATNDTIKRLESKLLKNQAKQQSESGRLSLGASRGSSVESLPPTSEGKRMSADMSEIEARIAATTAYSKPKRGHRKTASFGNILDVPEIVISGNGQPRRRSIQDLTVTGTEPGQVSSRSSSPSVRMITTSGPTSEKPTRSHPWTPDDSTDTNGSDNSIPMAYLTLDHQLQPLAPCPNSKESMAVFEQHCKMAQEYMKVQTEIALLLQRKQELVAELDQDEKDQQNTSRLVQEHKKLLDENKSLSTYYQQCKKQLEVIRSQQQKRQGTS
# Chain of MAP3K7 TAB1 (human) (Q15750 whole entry, looked up): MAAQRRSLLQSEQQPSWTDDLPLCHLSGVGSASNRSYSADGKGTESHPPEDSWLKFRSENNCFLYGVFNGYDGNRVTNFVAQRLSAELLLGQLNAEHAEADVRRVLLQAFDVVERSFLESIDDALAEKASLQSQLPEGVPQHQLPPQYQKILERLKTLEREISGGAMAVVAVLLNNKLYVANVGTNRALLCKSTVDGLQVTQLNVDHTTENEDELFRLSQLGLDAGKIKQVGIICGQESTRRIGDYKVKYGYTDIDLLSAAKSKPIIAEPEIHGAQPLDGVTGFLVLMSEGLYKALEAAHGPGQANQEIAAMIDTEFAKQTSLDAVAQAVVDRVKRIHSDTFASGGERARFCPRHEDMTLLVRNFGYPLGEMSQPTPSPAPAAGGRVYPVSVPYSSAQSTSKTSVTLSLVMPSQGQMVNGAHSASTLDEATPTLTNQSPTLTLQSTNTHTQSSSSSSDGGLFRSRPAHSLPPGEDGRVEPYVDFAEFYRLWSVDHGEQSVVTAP
# CSK (human) = CSK (human) (UniProt P41240)
# STK33 (human) = STK33 (human) (UniProt Q9BYT3)
# CAMK1G (human) = CAMK1G (human) (UniProt Q96NX5)
# DYRK2 (human) = DYRK2 (human) (UniProt Q92630)
# MAP3K5 (human) = MAP3K5 (human) (UniProt Q99683)
# CDK9 CCNK (human) = CDK9 CCNK (human) (UniProt O75909+P50750)
# CAMK2B (human) = CAMK2B (human) (UniProt Q13554)
# Chain of CAMK2B (human) (Q13554 whole entry, looked up): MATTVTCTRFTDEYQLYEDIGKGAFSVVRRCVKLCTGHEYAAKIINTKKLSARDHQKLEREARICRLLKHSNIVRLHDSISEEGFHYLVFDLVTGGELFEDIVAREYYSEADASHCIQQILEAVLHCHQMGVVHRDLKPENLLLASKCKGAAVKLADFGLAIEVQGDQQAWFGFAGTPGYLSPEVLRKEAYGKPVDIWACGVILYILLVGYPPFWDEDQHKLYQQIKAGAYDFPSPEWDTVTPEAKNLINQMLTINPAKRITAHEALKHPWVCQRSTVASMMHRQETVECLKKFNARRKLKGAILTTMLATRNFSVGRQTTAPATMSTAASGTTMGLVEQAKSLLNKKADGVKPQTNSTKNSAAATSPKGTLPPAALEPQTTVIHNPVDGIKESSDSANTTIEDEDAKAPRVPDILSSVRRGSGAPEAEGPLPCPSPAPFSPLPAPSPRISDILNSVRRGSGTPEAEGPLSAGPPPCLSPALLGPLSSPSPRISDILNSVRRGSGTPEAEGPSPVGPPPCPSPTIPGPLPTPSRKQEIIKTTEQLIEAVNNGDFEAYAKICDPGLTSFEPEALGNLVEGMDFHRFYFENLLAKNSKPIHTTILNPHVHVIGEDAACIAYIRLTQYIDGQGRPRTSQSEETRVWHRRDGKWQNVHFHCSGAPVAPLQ
# PKN1 (human) = PKN1 (human) (UniProt Q16512)
# AXL (human) = AXL (human) (UniProt P30530)
# CAMK1 (human) = CAMK1 (human) (UniProt Q14012)
# CDK1 CCNB1 (human) = CDK1 CCNB1 (human) (UniProt P06493+P14635)
# PRKCZ (human) = PRKCZ (human) (UniProt Q05513)
# PIM2 (human) = PIM2 (human) (UniProt Q9P1W9)
# TGFBR1 (human) = TGFBR1 (human) (UniProt P36897)
# AKT3 (human) = AKT3 (human) (UniProt Q9Y243)
# PHKG1 (human) = PHKG1 (human) (UniProt Q16816)
# CDK6 CCND1 (human) = CDK6 CCND1 (human) (UniProt Q00534+P24385)
# RPS6KA2 KD1 KD2 (human) = RPS6KA2 KD1 KD2 (human) (UniProt Q15349)
# IRAK4 (human) = IRAK4 (human) (UniProt Q9NWZ3)
# DAPK1 (human) = DAPK1 (human) (UniProt P53355)
# RIPK2 (human) = RIPK2 (human) (UniProt O43353)
# Chain of EPHA4 (human) (P54764 whole entry, looked up): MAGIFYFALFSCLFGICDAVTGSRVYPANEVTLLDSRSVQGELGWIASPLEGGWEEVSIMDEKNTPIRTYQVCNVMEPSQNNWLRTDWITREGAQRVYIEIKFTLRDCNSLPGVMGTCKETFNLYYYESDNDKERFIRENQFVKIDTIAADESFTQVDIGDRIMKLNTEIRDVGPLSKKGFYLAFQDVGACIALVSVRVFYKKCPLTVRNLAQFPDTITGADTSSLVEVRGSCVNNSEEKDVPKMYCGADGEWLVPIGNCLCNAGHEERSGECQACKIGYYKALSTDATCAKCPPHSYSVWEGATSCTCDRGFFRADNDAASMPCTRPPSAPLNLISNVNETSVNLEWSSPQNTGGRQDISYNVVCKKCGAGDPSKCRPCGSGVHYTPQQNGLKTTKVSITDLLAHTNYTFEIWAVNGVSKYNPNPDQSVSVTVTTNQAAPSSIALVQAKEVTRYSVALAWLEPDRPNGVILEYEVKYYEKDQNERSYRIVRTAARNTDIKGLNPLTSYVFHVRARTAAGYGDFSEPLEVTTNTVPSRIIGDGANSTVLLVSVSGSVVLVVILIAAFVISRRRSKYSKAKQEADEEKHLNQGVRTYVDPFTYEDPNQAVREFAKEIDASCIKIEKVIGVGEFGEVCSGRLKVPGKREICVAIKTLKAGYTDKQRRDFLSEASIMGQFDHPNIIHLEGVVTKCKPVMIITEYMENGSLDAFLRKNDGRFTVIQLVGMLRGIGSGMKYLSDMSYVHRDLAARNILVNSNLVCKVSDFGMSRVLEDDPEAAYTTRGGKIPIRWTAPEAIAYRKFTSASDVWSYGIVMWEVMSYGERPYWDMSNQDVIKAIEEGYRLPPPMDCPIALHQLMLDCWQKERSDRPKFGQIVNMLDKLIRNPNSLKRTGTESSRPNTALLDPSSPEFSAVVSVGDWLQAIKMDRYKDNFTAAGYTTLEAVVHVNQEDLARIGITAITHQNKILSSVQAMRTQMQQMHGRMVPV
SMILES,residual activity (CSNK2A2 (human)) [%],residual activity (EPHA4 (human)) [%],residual activity (MAP3K9 (human)) [%],residual activity (RAF1 (human)) [%],residual activity (MAPK3 (human)) [%],residual activity (CAMK2D (human)) [%],residual activity (RPS6KB1 (human)) [%],residual activity (LTK (human)) [%],residual activity (CDK5 CDK5R1 p35 (human)) [%],residual activity (STK4 (human)) [%],residual activity (MAPK1 (human)) [%],residual activity (STK17A (human)) [%],residual activity (TEK (human)) [%],residual activity (BRSK2 (human)) [%],residual activity (MAP4K4 (human)) [%],residual activity (TXK (human)) [%],residual activity (PTK2 (human)) [%],residual activity (FES (human)) [%],residual activity (AURKC (human)) [%],residual activity (MAP3K7 TAB1 (human)) [%],also measured
N#C/C(=C1/Nc2ccccc2S1)c1ccnc(NCCc2cccnc2)n1,27.1,104,100,84,99.4,89.3,98.2,83.1,97.2,92.2,93.5,94,97.5,88.1,87.1,49.3,93,92.8,96,91.5,residual activity (CSK (human)): 93.4%; residual activity (STK33 (human)): 55.4%; residual activity (CAMK1G (human)): 92.3%; residual activity (DYRK2 (human)): 22.2%; residual activity (MAP3K5 (human)): 102%; residual activity (CDK9 CCNK (human)): 26.6%; residual activity (CAMK2B (human)): 97.3%; residual activity (PKN1 (human)): 96.3%; residual activity (AXL (human)): 106%; residual activity (CAMK1 (human)): 101%; residual activity (CDK1 CCNB1 (human)): 96.8%; residual activity (PRKCZ (human)): 102%; residual activity (PIM2 (human)): 91.2%; residual activity (TGFBR1 (human)): 97.8%; residual activity (AKT3 (human)): 105%; residual activity (PHKG1 (human)): 89%; residual activity (CDK6 CCND1 (human)): 89.7%; residual activity (RPS6KA2 KD1 KD2 (human)): 89.6%; residual activity (IRAK4 (human)): 83.7%; residual activity (DAPK1 (human)): 99.3%
O=c1cc(N2CCOCC2)oc2c(-c3ccccc3)cccc12,93.9,99.2,108,82.3,104,100,101,87.8,107,87.8,70.3,93.5,89.2,96.2,93.5,93.6,103,96.6,97,85.4,residual activity (RIPK2 (human)): 89.9%; residual activity (CSK (human)): 88.1%; residual activity (STK33 (human)): 92.1%; residual activity (CAMK1G (human)): 93.8%; residual activity (DYRK2 (human)): 90.8%; residual activity (MAP3K5 (human)): 96.2%; residual activity (CDK9 CCNK (human)): 95.9%; residual activity (CAMK2B (human)): 110%; residual activity (PKN1 (human)): 109%; residual activity (AXL (human)): 110%; residual activity (CAMK1 (human)): 96.7%; residual activity (CDK1 CCNB1 (human)): 115%; residual activity (PIM2 (human)): 106%; residual activity (TGFBR1 (human)): 97.5%; residual activity (AKT3 (human)): 102%; residual activity (PHKG1 (human)): 90.1%; residual activity (CDK6 CCND1 (human)): 97.9%; residual activity (RPS6KA2 KD1 KD2 (human)): 92.4%; residual activity (IRAK4 (human)): 96%; residual activity (DAPK1 (human)): 90.1%
